Results taken from US8030443B2, “Squamous cell carcinoma antigen-derived peptide binding to HLA-A24 molecule” (Kurume University, priority 2005, dated 2011).

Test system: peptide-specific IgG in sera of cancer patients and healthy donors
Assay: Measurement of anti-peptide IgG in plasma by LUMINEX multiplexed flow cytometric assay
Type: binding, human
Conditions: for Total: healthy donors with significant peptide-reactive IgG / donors tested: 10 healthy donors; for Total: healthy donors with significant peptide-reactive IgG / donors tested / Total: cancer patients with significant peptide-reactive IgG / patients tested: significant when fluorescence intensity exceeded 100 at 1/100 dilution; for Total: cancer patients with significant peptide-reactive IgG / patients tested: 71 cancer patients
Method in brief: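 Plasma diluted 1/100 incubated with peptide-coupled colour-coded beads 2 h at RT, then biotinylated goat anti-human IgG (γ-chain) 1 h and streptavidin-PE 30 min; fluorescence read by multiplexed flow cytometry, >100 counted significant. Specificity checked by three rounds of absorption on corresponding versus irrelevant SCCA peptide.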

[1] = serum of Breast Ca. patient #36, 1:100 dilution
[2] = serum of Breast Ca. patient #37, 1:100 dilution
[3] = serum of Breast Ca. patient #38, 1:100 dilution
[4] = serum of Breast Ca. patient #39, 1:100 dilution
[5] = serum of Breast Ca. patient #40, 1:100 dilution
[6] = serum of Breast Ca. patient #41, 1:100 dilution
[7] = serum of Breast Ca. patient #42, 1:100 dilution
[8] = serum of Breast Ca. patient #43, 1:100 dilution
[9] = serum of Breast Ca. patient #44, 1:100 dilution
[10] = serum of Breast Ca. patient #45, 1:100 dilution
[11] = serum of Colon Ca. patient #66, 1:100 dilution
[12] = serum of Colon Ca. patient #67, 1:100 dilution
[13] = serum of Colon Ca. patient #68, 1:100 dilution
[14] = serum of Colon Ca. patient #69, 1:100 dilution
[15] = serum of Colon Ca. patient #70, 1:100 dilution
[16] = serum of Colon Ca. patient #71, 1:100 dilution
[17] = serum of Gastric Ca. patient #56, 1:100 dilution
[18] = serum of Gastric Ca. patient #57, 1:100 dilution
[19] = serum of Gastric Ca. patient #58, 1:100 dilution
[20] = serum of Gastric Ca. patient #59, 1:100 dilution
[21] = serum of Gastric Ca. patient #60, 1:100 dilution
[22] = serum of Gastric Ca. patient #61, 1:100 dilution
[23] = serum of Gastric Ca. patient #62, 1:100 dilution
[24] = serum of Gastric Ca. patient #63, 1:100 dilution
[25] = serum of Gastric Ca. patient #64, 1:100 dilution
[26] = serum of Gastric Ca. patient #65, 1:100 dilution
[27] = serum of Healthy Donor #1, 1:100 dilution
[28] = serum of Healthy Donor #2, 1:100 dilution
[29] = serum of Healthy Donor #3, 1:100 dilution
[30] = serum of Healthy Donor #4, 1:100 dilution
[31] = serum of Healthy Donor #5, 1:100 dilution
[32] = serum of Healthy Donor #6, 1:100 dilution
[33] = serum of Healthy Donor #7, 1:100 dilution
[34] = serum of Healthy Donor #8, 1:100 dilution
[35] = serum of Healthy Donor #9, 1:100 dilution
[36] = serum of Healthy Donor #10, 1:100 dilution
[37] = serum of Pancreas Ca. patient #46, 1:100 dilution
[38] = serum of Pancreas Ca. patient #47, 1:100 dilution
[39] = serum of Pancreas Ca. patient #48, 1:100 dilution
[40] = serum of Pancreas Ca. patient #49, 1:100 dilution
[41] = serum of Pancreas Ca. patient #50, 1:100 dilution
[42] = serum of Pancreas Ca. patient #51, 1:100 dilution
[43] = serum of Pancreas Ca. patient #52, 1:100 dilution
[44] = serum of Pancreas Ca. patient #53, 1:100 dilution
[45] = serum of Pancreas Ca. patient #54, 1:100 dilution
[46] = serum of Pancreas Ca. patient #55, 1:100 dilution
[47] = serum of Uterine cervical Ca. patient #1, 1:100 dilution
[48] = serum of Uterine cervical Ca. patient #2, 1:100 dilution
[49] = serum of Uterine cervical Ca. patient #3, 1:100 dilution
[50] = serum of Uterine cervical Ca. patient #4, 1:100 dilution
[51] = serum of Uterine cervical Ca. patient #5, 1:100 dilution
[52] = serum of Uterine cervical Ca. patient #6, 1:100 dilution
[53] = serum of Uterine cervical Ca. patient #7, 1:100 dilution
[54] = serum of Uterine cervical Ca. patient #8, 1:100 dilution
[55] = serum of Uterine cervical Ca. patient #9, 1:100 dilution
[56] = serum of Uterine cervical Ca. patient #10, 1:100 dilution
[57] = serum of Uterine cervical Ca. patient #11, 1:100 dilution
[58] = serum of Uterine cervical Ca. patient #12, 1:100 dilution
[59] = serum of Uterine cervical Ca. patient #13, 1:100 dilution
[60] = serum of Uterine cervical Ca. patient #14, 1:100 dilution
[61] = serum of Uterine cervical Ca. patient #15, 1:100 dilution
[62] = serum of Uterine cervical Ca. patient #16, 1:100 dilution
[63] = serum of Uterine cervical Ca. patient #17, 1:100 dilution
[64] = serum of Uterine cervical Ca. patient #18, 1:100 dilution
[65] = serum of Uterine cervical Ca. patient #19, 1:100 dilution
[66] = serum of Uterine cervical Ca. patient #20, 1:100 dilution
[67] = serum of Uterine cervical Ca. patient #21, 1:100 dilution
[68] = serum of Uterine cervical Ca. patient #22, 1:100 dilution
[69] = serum of Uterine cervical Ca. patient #23, 1:100 dilution
[70] = serum of Uterine cervical Ca. patient #24, 1:100 dilution
[71] = serum of Uterine cervical Ca. patient #25, 1:100 dilution
[72] = serum of Uterine cervical Ca. patient #26, 1:100 dilution
[73] = serum of Uterine cervical Ca. patient #27, 1:100 dilution
[74] = serum of Uterine cervical Ca. patient #28, 1:100 dilution
[75] = serum of Uterine cervical Ca. patient #29, 1:100 dilution
[76] = serum of Uterine cervical Ca. patient #30, 1:100 dilution
[77] = serum of Uterine cervical Ca. patient #31, 1:100 dilution
[78] = serum of Uterine cervical Ca. patient #32, 1:100 dilution
[79] = serum of Uterine cervical Ca. patient #33, 1:100 dilution
[80] = serum of Uterine cervical Ca. patient #34, 1:100 dilution
[81] = serum of Uterine cervical Ca. patient #35, 1:100 dilution

With “QFQKLLTEF (SCCA 84-92 peptide) [SCCA-derived peptide, position 84-92]” the “Total: healthy donors with significant peptide-reactive IgG / donors tested” value was 1/10, the “Total: cancer patients with significant peptide-reactive IgG / patients tested” value was 14/71 and the Fluorescence intesity [1] was 95. For the same sequence, the Fluorescence intesity [2] was 0, the Fluorescence intesity [3] was 31 and the Fluorescence intesity [4] was 34. It also gave a Fluorescence intesity [5] of 5, a Fluorescence intesity [6] of 182 and a Fluorescence intesity [7] of 11. The Fluorescence intesity [8] was 26, the Fluorescence intesity [9] was 20 and the Fluorescence intesity [10] was 39. It also gave a Fluorescence intesity [11] of 0, a Fluorescence intesity [12] of 47 and a Fluorescence intesity [13] of 0. It also gave a Fluorescence intesity [14] of 0, a Fluorescence intesity [15] of 0 and a Fluorescence intesity [16] of 8. It also gave a Fluorescence intesity [17] of 18, a Fluorescence intesity [18] of 7 and a Fluorescence intesity [19] of 0. It also gave a Fluorescence intesity [20] of 118, a Fluorescence intesity [21] of 0 and a Fluorescence intesity [22] of 102. It also gave a Fluorescence intesity [23] of 0, a Fluorescence intesity [24] of 0 and a Fluorescence intesity [25] of 7. The Fluorescence intesity [26] was 0, the Fluorescence intesity [27] was 0 and the Fluorescence intesity [28] was 79. The Fluorescence intesity [29] was 0, the Fluorescence intesity [30] was 0 and the Fluorescence intesity [31] was 0. It also gave a Fluorescence intesity [32] of 0, a Fluorescence intesity [33] of 0 and a Fluorescence intesity [34] of 332. For the same sequence, the Fluorescence intesity [35] was 33, the Fluorescence intesity [36] was 0 and the Fluorescence intesity [37] was 0. It also gave a Fluorescence intesity [38] of 3, a Fluorescence intesity [39] of 344 and a Fluorescence intesity [40] of 0. For the same sequence, the Fluorescence intesity [41] was 0, the Fluorescence intesity [42] was 0 and the Fluorescence intesity [43] was 108. For the same sequence, the Fluorescence intesity [44] was 0, the Fluorescence intesity [45] was 13 and the Fluorescence intesity [46] was 0. The Fluorescence intesity [47] was 20, the Fluorescence intesity [48] was 2 and the Fluorescence intesity [49] was 0. The Fluorescence intesity [50] was 29, the Fluorescence intesity [51] was 15 and the Fluorescence intesity [52] was 922. For the same sequence, the Fluorescence intesity [53] was 12, the Fluorescence intesity [54] was 28 and the Fluorescence intesity [55] was 67. The Fluorescence intesity [56] was 15, the Fluorescence intesity [57] was 23 and the Fluorescence intesity [58] was 35. For the same sequence, the Fluorescence intesity [59] was 23, the Fluorescence intesity [60] was 20 and the Fluorescence intesity [61] was 116. For the same sequence, the Fluorescence intesity [62] was 182, the Fluorescence intesity [63] was 56 and the Fluorescence intesity [64] was 49. It also gave a Fluorescence intesity [65] of 62, a Fluorescence intesity [66] of 106 and a Fluorescence intesity [67] of 19. The Fluorescence intesity [68] was 20, the Fluorescence intesity [69] was 57 and the Fluorescence intesity [70] was 1819. For the same sequence, the Fluorescence intesity [71] was 17, the Fluorescence intesity [72] was 128 and the Fluorescence intesity [73] was 28. The Fluorescence intesity [74] was 139, the Fluorescence intesity [75] was 14 and the Fluorescence intesity [76] was 33. It also gave a Fluorescence intesity [77] of 108, a Fluorescence intesity [78] of 18 and a Fluorescence intesity [79] of 141. It also gave a Fluorescence intesity [80] of 15 and a Fluorescence intesity [81] of 18.
In the case of “RFKVEESYDL (SCCA 286-295 peptide) [SCCA-derived peptide, position 286-295]”, the “Total: healthy donors with significant peptide-reactive IgG / donors tested” value is reported as 4/10, the “Total: cancer patients with significant peptide-reactive IgG / patients tested” value is reported as 19/71 and the “Specificity of IgG reactive to the peptide” value (absorption assay: corresponding vs irrelevant SCCA peptide-coated wells (FIG. 3)) is reported as “confirmed by absorption assay”. It also gave a Fluorescence intesity [1] of 292, a Fluorescence intesity [2] of 54 and a Fluorescence intesity [3] of 95. It also gave a Fluorescence intesity [4] of 117, a Fluorescence intesity [5] of 32 and a Fluorescence intesity [6] of 321. It also gave a Fluorescence intesity [7] of 47, a Fluorescence intesity [8] of 58 and a Fluorescence intesity [9] of 155. The Fluorescence intesity [10] was 80, the Fluorescence intesity [11] was 4 and the Fluorescence intesity [12] was 35. For the same sequence, the Fluorescence intesity [13] was 0, the Fluorescence intesity [14] was 8 and the Fluorescence intesity [15] was 16. For the same sequence, the Fluorescence intesity [16] was 45, the Fluorescence intesity [17] was 243 and the Fluorescence intesity [18] was 9. For the same sequence, the Fluorescence intesity [19] was 27, the Fluorescence intesity [20] was 258 and the Fluorescence intesity [21] was 79. For the same sequence, the Fluorescence intesity [22] was 286, the Fluorescence intesity [23] was 0 and the Fluorescence intesity [24] was 7. The Fluorescence intesity [25] was 40, the Fluorescence intesity [26] was 37 and the Fluorescence intesity [27] was 21. For the same sequence, the Fluorescence intesity [28] was 219, the Fluorescence intesity [29] was 9 and the Fluorescence intesity [30] was 0. For the same sequence, the Fluorescence intesity [31] was 239, the Fluorescence intesity [32] was 2 and the Fluorescence intesity [33] was 0. It also gave a Fluorescence intesity [34] of 516, a Fluorescence intesity [35] of 100 and a Fluorescence intesity [36] of 138. The Fluorescence intesity [37] was 0, the Fluorescence intesity [38] was 37 and the Fluorescence intesity [39] was 946. The Fluorescence intesity [40] was 97, the Fluorescence intesity [41] was 0 and the Fluorescence intesity [42] was 0. For the same sequence, the Fluorescence intesity [43] was 275, the Fluorescence intesity [44] was 41 and the Fluorescence intesity [45] was 48. It also gave a Fluorescence intesity [46] of 24, a Fluorescence intesity [47] of 75 and a Fluorescence intesity [48] of 0. For the same sequence, the Fluorescence intesity [49] was 21, the Fluorescence intesity [50] was 229 and the Fluorescence intesity [51] was 58. It also gave a Fluorescence intesity [52] of 869, a Fluorescence intesity [53] of 15 and a Fluorescence intesity [54] of 30. For the same sequence, the Fluorescence intesity [55] was 93, the Fluorescence intesity [56] was 14 and the Fluorescence intesity [57] was 23. It also gave a Fluorescence intesity [58] of 44, a Fluorescence intesity [59] of 29 and a Fluorescence intesity [60] of 19. The Fluorescence intesity [61] was 129, the Fluorescence intesity [62] was 147 and the Fluorescence intesity [63] was 63. It also gave a Fluorescence intesity [64] of 48, a Fluorescence intesity [65] of 62 and a Fluorescence intesity [66] of 102. For the same sequence, the Fluorescence intesity [67] was 21, the Fluorescence intesity [68] was 25 and the Fluorescence intesity [69] was 60. It also gave a Fluorescence intesity [70] of 1779, a Fluorescence intesity [71] of 18 and a Fluorescence intesity [72] of 97. The Fluorescence intesity [73] was 29, the Fluorescence intesity [74] was 139 and the Fluorescence intesity [75] was 16. The Fluorescence intesity [76] was 34, the Fluorescence intesity [77] was 104 and the Fluorescence intesity [78] was 19. It also gave a Fluorescence intesity [79] of 118, a Fluorescence intesity [80] of 16 and a Fluorescence intesity [81] of 21.
